According to patent US20220378811A1, “VENETOCLAX DOSING REGIMENS FOR USE IN TREATING MYELODYSPLASTIC SYNDROMES IN COMBINATION WITH AZACITIDINE” (ABBVIE INC., priority 2021, published 2022):

Experiment: Phase 1b study in previously untreated higher-risk MDS: dose administration, dose reductions and cycle delays in SE1 and SE2
Format: in vivo, human
Conditions: for # of reductions in Venetoclax duration: reductions due to hematologic toxicity
Protocol: Responses were evaluated using IWG 2006 criteria.
Subjects who initiate a cycle of treatment with neutropenia, absolute neutrophil count <1.5×10^9/L, or thrombocytopenia, platelets <75×10^9/L, may be especially sensitive to cytopenias due to abnormal hematopoiesis resulting from the underlying […]. […] However, subjects who initiate a cycle of treatment with absolute neutrophil count 1.5×10^9/L and platelets 75×10^9/L and have a previous response of complete remission, partial remission, or marrow complete remission may require dose reduction, if subsequent absolute neutrophil count nadir <0.500×10^9/L, or platelets nadir <50×10^9/L, if baseline was >100×10^9/L, or platelets <50% if baseline was ≤100×10^9/L.

Venetoclax dose delay by end of Cycle 2, Median # days (SE1, n = 22): 7.5 days | Venetoclax dose delay by end of Cycle 3, Median # days (SE1, n = 22): 14 days | Venetoclax dose delay by end of Cycle 4, Median # days (SE1, n = 22): 17 days | Venetoclax dose delay by end of Cycle 5, Median # days (SE1, n = 22): 14 days | Venetoclax dose delay by end of Cycle 6, Median # days (SE1, n = 22): 7 days | Venetoclax dose delay by end of Cycle 2, Median # days (SE2, n = 21): 8 days | Venetoclax dose delay by end of Cycle 3, Median # days (SE2, n = 21): 8.5 days | Venetoclax dose delay by end of Cycle 4, Median # days (SE2, n = 21): 9 days | Venetoclax dose delay by end of Cycle 5, Median # days (SE2, n = 21): 14 days | Venetoclax dose delay by end of Cycle 6, Median # days (SE2, n = 21): 14 days
Structure (SMILES): CC1(C)CCC(CN2CCN(c3ccc(C(=O)NS(=O)(=O)c4ccc(NCC5CCOCC5)c([N+](=O)[O-])c4)c(Oc4cnc5[nH]ccc5c4)c3)CC2)=C(c2ccc(Cl)cc2)C1 [Venetoclax, 4-(4-{[2-(4-chlorophenyl)-4,4-dimethylcyclohex-1-en-1-yl]methyl}piperazin-1-yl)-N-({3nitro-4-[(tetrahydro-2H-pyran-4-ylmethyl)amino]phenyl}sulfonyl)-2-(1H-pyrrolo[2,3-b]pyridin5-yloxy)benzamide]
# of reductions in Venetoclax duration (SE1, n = 22): 3 (14) | # of reductions in Venetoclax duration (SE2, n = 21): 0
